What was measured:
[1] = target: T1, HER-2 (Homo sapiens, UniProt P04626); test: Inhibition of HER-2 phosphorylation in Calu-3 tumor cell line; assay type: cell-based; conditions: Calu-3 cells, compound 1 μM, 16 h, pY 1248 in HER-2, percentage of DMSO control; for inhibition at 1 µM: read-out: Percent inhibition of HER2-phosphorylation (compound concentration 1 μM)
T1 construct: endogenous in cells; host or cells: Calu-3 (ATCC HTB-55)
Protocol: Inhibition of HER-2 Phosphorylation in Calu-3 Tumor Cell Line
2×10^5 Calu-3 (ATTC HTB-55) cells per well were plated in a 12-well plate. After 4 days cells were starved for 16 h in Dulbecco's Modified Eagle Medium (DMEM)/0.5% Fetal Calf Serum (FCS)/1% Glutamine. During this 16 h period cells were incubated with a solution of the test compound in dimethylsulfoxide(DMSO), so that the final concentration of the compound is 1 μM and the final volume of DMSO is 0.5%. Afterwards cells were lysed in lyses buffer containing 1% Triton®X-100, 10% Glycerol, 1 mM Ethylene glycol-bis(2-aminoethylether)-N,N,N′,N′-tetraacetic acid (EGTA), 1.5 mM MgCl2, 150 mM NaCl, 50 mM 4-(2-hydroxyethyl)-1-piperazineethanesulfonic acid (HEPES) buffer pH 7.5, 1 mM Phenylmethylsulfonyl fluoride (PMSF), 10 ∥g/mL Aprotinin and […] Orthovanadate. Cell lysates were analyzed on a Sodium Dodecyl Sulfate Polyacrylamide Gel Electrophoresis (SDS PAGE) and after transfer to a nitrocellulose membrane detected with an antibody specifically recognizing the pY 1248 in HER-2. Inhibition of HER-2 phosphorylation is calculated as percentage of the control, which is treated with DMSO only.

[2] = system: HEK293 cells; test: Viability assay of HEK293 cells (CellTiter-Glo); assay type: cell-based; conditions: Homo sapiens, 168 h, 7 days, 3 μM to 0.00015 μM, luminescence
Protocol: Viability Assay of HEK293 Cells
A viability assay was performed using the CellTiter-Glo™ Luminescent Cell Viability Assay (see Promega Corporation's Technical Publication No. 288, pp. 1-11 [revised 2.04] which is hereby incorporated by reference in its entirety). This assay is a homogeneous method of determining the number of viable cells in culture based on quantitation of the ATP present, which signals the presence of metabolically active cells. The assay is designed for use with multiwell formats, making it ideal for automated high-throughput screening (HTS), cell proliferation and cytotoxicity assays. The homogeneous assay procedure involves adding a single reagent (containing luciferase, luciferan substrate, and buffer) directly to cells cultured in serum-supplemented medium. Cell washing, removal of medium and multiple pipetting steps are not required. The system detects as few as 15 cells/well in a 384-well format in 10 minutes after adding reagent and mixing.
The homogeneous “add-mix-measure” format results in cell lysis and generation of a luminescent signal proportional to the amount of ATP present. The amount of ATP is directly proportional to the number of cells present in culture. The above-referenced assay generates a “glow-type” luminescent signal, produced by the luciferase reaction, which has a half-life generally greater than five hours, depending on cell type and medium used. The extended half-life eliminates the need to use reagent injectors and provides flexibility for continuous or batch mode processing of multiple plates. The unique homogeneous format avoids errors that may be introduced by other ATP measurement methods that require multiple steps.
HEK293 cells (human embryonic kidney cell line transformed by Adenovirus 5 fragments, ATCC-No. CRL 1573) were cultivated in Dulbecco's Modified Eagle Medium (DMEM) (1×) liquid (high glucose) (which includes L-Alanyl-L-Glutamine [a stabilized a form of L-Glutamine], 4500 mg/L glucose, and 110 mg/L sodium pyruvate) from Invitrogen Corporation (Invitrogen Catalog Number 31966-021 [now 10569-010] which is hereby incorporated by reference in its entirety), 5% Fetal Calf Serum (FCS, Sigma Cat-No. F4135 (FBS) which is hereby incorporated by reference in its entirety), and 100 Units/ml penicillin/100 μg/ml streptomycin(=Pen/Strep from Invitrogen Cat. No. 15140 which is hereby incorporated by reference in its entirety). For the assay the cells were seeded in 384 well plates, 5000 cells per well, in the same medium. The next day the test compounds were added in various concentrations ranging from 3 μM to 0.00015 μM (10 concentrations, 1:3 diluted). After 7 days the above viability assay was performed in accordance with the following steps: • Step 1: The cell-plate was equilibrated to room temperature for approximately 30 minutes and than the assay reagent was added. • Step 2: The contents were carefully mixed for 15 minutes to induce cell lysis. • Step 3: After 45 minutes the luminescent signal was measured in Victor 2, (scanning multiwell spectrophotometer, Wallac). Details: 1st Day: • Medium: Dulbecco's Modified Eagle Medium (DMEM) (1×) liquid (high glucose) (which includes L-Alanyl-L-Glutamine [a stabilized a form/source of L-Glutamine], 4500 mg/L glucose, and 110 mg/L sodium pyruvate) from Invitrogen Corporation (Invitrogen Catalog Number 31966-021 [now 10569-010]), 5% Fetal Calf Serum (FCS, Sigma Cat-No. F4135 (FBS)), and Pen/Strep (Invitrogen Cat. No. 15140). • HEK293 (ATCC-No. CRL 1573): 5000 cells in 60 μl per well of 384 well plate. (Greiner 781098, white plates) • Incubate 24 h at 37° C., 5% CO2 2nd Day: Induction (Substance Testing):
In general the dilution steeps are 1:3 a) Add 8 μl of 10 mM stock solution of compound to 72 μl DMSO b) dilute 9×1:3 (always 30 μl to 60 μl DMSO) in this DMSO dilution row (results in 10 wells with concentrations from 1000 μM to 0.06 μM) c) dilute each concentration 1: 4.8 (10 μl compound dilution to 38 μl medium) […]

T1 sequence (P04626 23-1255): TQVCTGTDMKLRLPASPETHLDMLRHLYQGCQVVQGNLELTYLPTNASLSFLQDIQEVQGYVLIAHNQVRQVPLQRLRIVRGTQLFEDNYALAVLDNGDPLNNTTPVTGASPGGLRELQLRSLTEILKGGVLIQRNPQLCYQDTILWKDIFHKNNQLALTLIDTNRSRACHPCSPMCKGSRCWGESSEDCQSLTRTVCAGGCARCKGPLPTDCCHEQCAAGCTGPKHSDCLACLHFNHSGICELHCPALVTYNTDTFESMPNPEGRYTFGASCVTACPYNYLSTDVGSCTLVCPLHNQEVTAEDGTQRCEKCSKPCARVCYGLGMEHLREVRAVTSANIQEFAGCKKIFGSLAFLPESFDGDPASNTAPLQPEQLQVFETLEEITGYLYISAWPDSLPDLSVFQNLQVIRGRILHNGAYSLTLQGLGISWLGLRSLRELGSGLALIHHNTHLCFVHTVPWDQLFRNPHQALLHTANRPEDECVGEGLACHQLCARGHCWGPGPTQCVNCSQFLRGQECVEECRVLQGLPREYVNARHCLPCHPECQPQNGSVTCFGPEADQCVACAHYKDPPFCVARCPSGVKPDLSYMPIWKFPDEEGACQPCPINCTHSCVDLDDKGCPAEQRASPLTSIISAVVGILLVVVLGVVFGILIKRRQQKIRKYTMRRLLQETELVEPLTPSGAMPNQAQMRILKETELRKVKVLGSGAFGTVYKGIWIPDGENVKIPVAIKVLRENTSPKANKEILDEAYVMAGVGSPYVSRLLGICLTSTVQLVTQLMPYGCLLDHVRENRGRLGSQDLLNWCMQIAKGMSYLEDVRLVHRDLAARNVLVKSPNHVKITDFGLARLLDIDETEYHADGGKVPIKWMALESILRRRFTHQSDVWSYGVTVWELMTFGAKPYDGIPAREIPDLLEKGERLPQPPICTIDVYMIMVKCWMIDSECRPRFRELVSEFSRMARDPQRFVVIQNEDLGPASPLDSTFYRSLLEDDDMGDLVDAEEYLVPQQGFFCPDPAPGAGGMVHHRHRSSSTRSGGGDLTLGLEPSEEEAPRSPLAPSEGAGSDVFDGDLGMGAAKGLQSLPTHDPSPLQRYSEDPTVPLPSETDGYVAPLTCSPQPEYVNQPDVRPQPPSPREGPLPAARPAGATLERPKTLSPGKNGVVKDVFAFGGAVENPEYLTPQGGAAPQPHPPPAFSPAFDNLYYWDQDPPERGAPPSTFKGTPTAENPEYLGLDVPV

Compound | inhibition at 1 µM [1] [%] | IC50 [2] [µM] | Percent inhibition of HER2-phosphorylation (compound concentration 1 μM) [1] [%]
CN(C(=O)c1coc(COc2ccc(CCCCn3ccnn3)cc2)n1)c1ccc(Cl)cc1 [Example 2, 2-[4-(4-[1,2,3]Triazol-1-yl-butyl)-phenoxymethyl]-oxazole-4-carboxylic acid (4-chloro-phenyl)-methyl-amide] | 55 to 70 |  | 
O=C(Nc1ccc2c(c1)OC(F)(F)O2)c1coc(COc2ccc(CCCCn3ccnn3)cc2)n1 [Example 9, 2-[4-(4-[1,2,3]Triazol-1-yl-butyl)-phenoxymethyl]-oxazole-4-carboxylic acid (2,2-difluoro-benzo [1,3]dioxol-5-yl)-amide] | 55 to 70 | 0.116 | 
O=C(Nc1ccc(OC(F)(F)F)cc1)c1coc(COc2ccc(CCCCn3ccnn3)cc2)n1 [Example 10, 2-[4-(4-[1,2,3]Triazol-1-yl-butyl)-phenoxymethyl]-oxazole-4-carboxylic acid (4-trifluoro-methoxy-phenyl)-amide] |  |  | 75
O=C(Nc1ccc(SC(F)(F)F)cc1)c1coc(COc2ccc(CCCCn3ccnn3)cc2)n1 [Example 11, 2-[4-(4-[1,2,3]Triazol-1-yl-butyl)-phenoxymethyl]-oxazole-4-carboxylic acid (4-trifluoro-methylsulfanyl-phenyl)-amide] |  |  | 69
O=C(Nc1ccc(C(F)(F)F)cc1)c1coc(COc2ccc(CCCCn3ccnn3)cc2)n1 [Example 13, 2-[4-(4-[1,2,3]Triazol-1-yl-butyl)-phenoxymethyl]-oxazole-4-carboxylic acid (4-trifluoromethyl-phenyl)-amide] | > 80 | 0.005 to 0.5 | 
O=C(Nc1ccc(Cl)cc1F)c1coc(COc2ccc(CCCCn3ccnn3)cc2)n1 [Example 14, 2-[4-(4-[1,2,3]Triazol-1-yl-butyl)-phenoxymethyl]-oxazole-4-carboxylic acid (4-chloro-2-fluoro-phenyl)-amide] | 72 | 0.5 to 3 | 
O=C(Nc1ccc(OC(F)F)cc1)c1coc(COc2ccc(CCCCn3ccnn3)cc2)n1 [Example 22, 2-[4-(4-[1,2,3]Triazol-1-yl-butyl)-phenoxymethyl]-oxazole-4-carboxylic acid (4-difluoromethoxy-phenyl)-amide] | 55 to 70 |  | 
O=C(Nc1ccc(F)cc1)c1coc(COc2ccc(CCCCn3ccnn3)cc2)n1 [Example 31, 2-[4-(4-[1,2,3]Triazol-1-yl-butyl)-phenoxymethyl]-oxazole-4-carboxylic acid (4-fluoro-phenyl)-amide] | 55 to 70 | 0.5 to 3 | 
Cc1ccc(NC(=O)c2coc(COc3ccc(CCCCn4ccnn4)cc3)n2)cc1F [Example 36, 2-[4-(4-[1,2,3]Triazol-1-yl-butyl)-phenoxymethyl]-oxazole-4-carboxylic acid (3-fluoro-4-methyl-phenyl)-amide] | 70 to 80 | 0.005 to 0.5 | 
COc1ccc(NC(=O)c2coc(COc3ccc(CCCCn4ccnn4)cc3)n2)cc1 [Example 37, 2-[4-(4-[1,2,3]Triazol-1-yl-butyl)-phenoxymethyl]-oxazole-4-carboxylic acid (4-methoxy-phenyl)-amide] | 70 to 80 |  | 
O=C(Nc1ccc(OC(F)(F)F)cc1)c1nc(COc2ccc(CCCCn3ccnn3)cc2)cs1 [Example 39, 4-[4-(4-[1,2,3]Triazol-1-yl-butyl)-phenoxymethyl]-thiazole-2-carboxylic acid (4-trifluoromethoxy-phenyl)-amide] | 87 | 0.005 to 0.5 | 
O=C(Nc1ccc(S(F)(F)(F)(F)F)cc1)c1nc(COc2ccc(CCCCn3ccnn3)cc2)cs1 [Example 40, 4-[4-(4-[1,2,3]Triazol-1-yl-butyl)-phenoxymethyl]-thiazole-2-carboxylic acid (4-pentafluorosulfanyl-phenyl)-amide] | 70 to 80 | 0.005 to 0.5 | 
Cc1ccc(C(=O)Nc2nc(COc3ccc(CCCCn4ccnn4)cc3)cs2)cc1 [Example 52-14, 4-Methyl-N-{4-[4-(4-[1,2,3]triazol-1-yl-butyl)-phenoxymethyl]-thiazol-2-yl}-benzamide] |  | 0.005 to 0.5 | 
O=C(Nc1nc(COc2ccc(CCCCn3ccnn3)cc2)cs1)c1cc(F)ccc1F [Example 52-15, 2,5-Difluoro-N-{4-[4-(4-[1,2,3]triazol-1-yl-butyl)-phenoxymethyl]-thiazol-2-yl}-benzamide] |  | 0.005 to 0.5 | 
O=C(Nc1nc(COc2ccc(CCCCn3ccnn3)cc2)cs1)c1ccccc1Cl [Example 52-16, 2-Chloro-N-{4-[4-(4-[1,2,3]triazol-1-yl-butyl)-phenoxymethyl]-thiazol-2-yl}-benzamide] |  | 0.5 to 3 | 
O=C(Nc1nc(COc2ccc(CCCCn3ccnn3)cc2)cs1)c1ccc(F)c(Cl)c1 [Example 52-19, 3-Chloro-4-fluoro-N-{4-[4-(4-[1,2,3]triazol-1-yl-butyl)-phenoxymethyl]-thiazol-2-yl}-benzamide] |  | 0.005 to 0.5 | 
O=C(Nc1nc(COc2ccc(CCCCn3ccnn3)cc2)cs1)c1ccc(OC(F)F)cc1 [Example 52-22, 4-Difluoromethoxy-N-{4-[4-(4-[1,2,3]triazol-1-yl-butyl)-phenoxymethyl]-thiazol-2-yl}-benzamide] |  | 0.005 to 0.5 | 
O=C(Nc1nc(COc2ccc(CCCCn3ccnn3)cc2)cs1)c1cc(F)cc(F)c1 [Example 52-23, 3,5-Difluoro-N-{4-[4-(4-[1,2,3]triazol-1-yl-butyl)-phenoxymethyl]-thiazol-2-yl}-benzamide] |  | 0.005 to 0.5 | 
O=C(Nc1nc(COc2ccc(CCCCn3ccnn3)cc2)cs1)c1cccc(F)c1 [Example 52-25, 3-Fluoro-N-{4-[4-(4-[1,2,3]triazol-1-yl-butyl)-phenoxymethyl]-thiazol-2-yl}-benzamide] |  | 0.005 to 0.5 | 
Cc1cc(C(=O)Nc2nc(COc3ccc(CCCCn4ccnn4)cc3)cs2)ccc1F [Example 52-26, 4-Fluoro-3-methyl-N-{4-[4-(4-[1,2,3]triazol-1-yl-butyl)-phenoxymethyl]-thiazol-2-yl}-benzamide] |  | 0.005 to 0.5 | 
FC(F)(F)c1ccc(C=Cc2nc(COc3ccc(CCCCn4ccnn4)cc3)co2)cc1 [reference compound, 1-[4-(4-{2-[2-(4-Trifluoromethyl-phenyl)-vinyl]-oxazol-4-ylmethoxy}-phenyl)-butyl]-1H-[1,2,3]triazole, reference compound] | 52 |  | 

Source: patent publication US20060116407A1, “Amide derivatives” (priority 2004, published 2006)
